Values quoted from earlier work in US20090220611A1, “Microparticles With Modified Release of At Least One Active Principle and Oral Pharmaceutical Form Comprising Same” (priority 2005, published 2009).

Conditions: qualitative statement

- water solubility: sparingly water-soluble
Structure (SMILES): Nc1nc2c(ncn2COCCO)c(=O)[nH]1 [aciclovir]
